Measured values taken from patent USRE49050E1, “Traditional Chinese medicine composition, and preparation and application thereof” (Tasly Pharmaceutical Group Co., Ltd., priority 2013, dated 2022).

What was measured:
Assay type in all cases: in vivo
[1] = test system: collagen-induced platelet aggregation; experiment: Platelet aggregation rate trial in rabbits, collagen-induced; details: dose 60 mg/kg intragastric once a day for 7 days, n = 8
Method: (§1) The rabbits were randomly grouped into 4 groups: the model group was given with distilled water, the aspirin group ([…]), Extract A groups of low dose and high dose at 42 and 84 mg/kg (respectively 1 2 times of clinic equivalent dosage), intragastrically administrated, once a day for 7 consecutive days. The volume of medicine administrated was 1 ml/kg body weight. 60 min after intragastric administration on 7th day, the animals were anesthetized locally, blooded through carotid artery, anticoagulated with sodium citrate (3.8%) 1:9 and centrifugated at 1000 r/min for 10 min. Platelet-rich plasma (PRP) was taken and the remain centrifugated at 3000 r/min to take platelet-poor plasma (PPP. Aggregation was induced by ADP (final concentration 3 μg/ml), AA (final concentration 80 μg/ml) and collagen ([…]). […] platelet aggregation & coagulation factor analyzer was used to measure the maximum platelet aggregation rate and to calculate inhibition rate according to following formula. [formula] Results

[2] = test system: ADP-induced platelet aggregation; experiment: Platelet aggregation rate trial in rabbits, ADP-induced; details: ADP 3 μg/ml; dose 60 mg/kg intragastric once a day for 7 days; n = 8
Method: as §1

[3] = test system: AA-induced platelet aggregation; experiment: Platelet aggregation rate trial in rabbits, AA-induced; details: AA 80 μg/ml; dose 60 mg/kg intragastric once a day for 7 days; n = 8
Method: as §1

## CC(=O)Oc1ccccc1C(=O)O [Aspirin]
[1]
  Platelet aggregation rate: 6.23 ± 2.41 %
[2]
  Platelet aggregation rate: 18.96 ± 4.11 %
[3]
  Platelet aggregation rate: 6.13 ± 2.03 %
